Results taken from patent publication US12084411B2, “Hinokitiol analogues, methods of preparing and pharmaceutical compositions thereof” (The Board of Trustees of the University of Illinois, priority 2018, dated 2024).
Entries after “also recorded” stand apart in the source; their conditions may differ.

Experiments:
[1] = Iron efflux from liposomes using ferrozine; type: biochemical; conditions: for transport of ferrous and ferric iron across model liposomal membranes: 5 μM small molecule; for iron (III) efflux from POPC liposomes: 30 mM FeCl3 inside
Description: Iron (III) efflux from POPC liposomes was determined similar to previously reported (64). POPC liposomes were prepared as similarly reported (65) using 30 mM FeCl3, 62.5 mM citrate at pH=7.0 in 25 mM Mes/Tris buffer. External iron was removed by size exclusion chromatography using Sephadex G-50 and eluting with external buffer. External buffer consisted of 62.5 mM ascorbate at pH=7.0 in 25 mM Mes/Tris buffer. The liposomes were diluted to 1 mM phosphorus in this buffer. Ferrozine (Sigma 160601) was added (100X stock in external buffer) to a final concentration of 500 μM. Liposomal suspension was then transferred to a 96-well plate, and either DMSO or 5 μM hinokitiol, C2deOHino, deferiprone, or PIH (40X stock solution in DMSO) were added to initiate the experiment. The OD562 was determined every minute over the course of 2 hours using a plate-reader with continuous shaking at 30° C. to detect the relative amounts of external ferrozine-iron chelate at the indicated times. After 2 hours, liposomes were lysed with Triton-X to give 100% iron efflux.
Iron (II) efflux was performed as described above, however, the internal buffer alternatively consisted of 30 mM FeSO4, 62.5 mM ascorbate at pH=7.0 in 25 mM Mes/Tris buffer and Triton-X lysis was performed after 1 hour.
The rates of iron efflux with increasing concentrations of intraliposomal iron and/or hinokitiol were determined as described above using the indicated concentration of iron and hinokitiol. For the varying concentrations of iron, hinokitiol (10 μM) was added to the POPC liposomes, and the change in absorbance at 562 nm was determined over 2 hours. For the varying concentrations of hinokitiol, 30 mM intraliposomal iron was used as described above. The concentration of iron outside of liposomes was determined using the extinction coefficient for ferrozine-iron (27,900 M^−1 cm^−1) (66). This was used to determine the amount of iron released from liposomes at the indicated times using the total volume for each experiment. Rates of iron efflux were determined after one hour of hinokitiol treatment.

DMT1-deficient MEL cells = assay: Live cell fluorescence imaging and flow cytometry of compartmentalized iron in MEL cells; type: cell-based, mouse; conditions: for endosomal oxyburst green, cytosolic calcein green and mitochondrial RPA fluorescence: 1 μM
Description: To visualize cytosolic and mitochondrial iron, confocal imaging of calcein green and RPA fluorescence was performed, respectively. MEL cells were induced for differentiation as described above. […] The cells were incubated for an additional 2 hours, and then were centrifuged and rinsed with PBS. […] The cells were then incubated at 37° C. for 15 minutes. […] The cells were then imaged within 10 minutes on a LSM710 microscope. Relative calcein green and RPA fluorescence per cell was determined by ImageJ analysis using >100 cells per experiment. […] MEL cells were induced for differentiation as described above. […] The cells were incubated for an additional 2 hours, and then were centrifuged and rinsed with PBS. The cells were then re-suspended in DMEM-HEPES buffer, and H2O2 (50 mM final concentration) was added. The cells were incubated at room temperature, and the oxyburst green fluorescence was then determined 10 minutes after addition of H2O2 on a LSM710 microscope. Relative oxyburst green fluorescence per cell was determined by ImageJ analysis using >100 cells per experiment. […] Median fluorescence was then normalized to shDMT1 for each dye. […] Median fluorescence was then normalized to shDMT1 for each dye.

fet3Δftr1Δ yeast [2] = assay: Growth rescue of fet3Δftr1Δ yeast with small molecules in liquid media; type: cell-based, Saccharomyces cerevisiae; conditions: liquid low iron SD media, 10 μM FeCl3
Description: Growth rescue in yeast was performed similar to previously reported (20) using 10 μM hinokitiol in low iron SD liquid media containing 10 μM FeCl3 in a 96-well plate unless otherwise noted. Wild type and fet3Δftr1Δ controls treated with vehicle (DMSO) were performed under identical conditions using the same low iron SD media containing 10 μM FeCl3 in the absence of hinokitiol. Yeast were grown overnight in YPD media and diluted at an OD600 of 0.1 in SD media, diluted 10-fold, and incubated at 30° C. with continuous shaking (200 rpm). The OD600 was obtained 24-48 hours after inoculation unless otherwise noted.
Small molecule dose-response (FIG. 1F) with hinokitiol and C2-deoxy hinokitiol (C2deOHino, see synthesis below) was determined by addition of the small molecule (40X stock solution in DMSO) to give the indicated final concentrations.

fet3Δftr1Δ yeast [3] = assay: Fe3+ uptake assay in yeast; type: cell-based, Saccharomyces cerevisiae
Description: Iron (III) uptake into wild type and fet3Δftr1Δ yeast was adapted from Kosman and coworkers (56). Overnight yeast cultures were repeatedly centrifuged and rinsed with water. The cell pellet was resuspended in MilliQ water, and diluted in SD media without FeCl3. The cells were incubated at 30° C. for 3 hours, centrifuged and rinsed with water twice. The cells were then suspended to 3×10^7 cells/mL in SD media containing 50 mM sodium citrate and 2% glucose. Hinokitiol or C2deOHino (from 40X stocks in DMSO) was added to a final concentration of 100 μM before ^55FeCl3 ([…]) was added to the yeast suspensions. The suspension was continuously homogenized before aliquots were taken and diluted with 10 mL of room temperature water. Cells were then collected via vacuum filtration through a 0.45 μm nitrocellulose filter (Millipore HAWP), and rinsed with room temperature water (×5 of 100 mL). The filters were then transferred to a scintillation vial containing 3 mL of scintillation cocktail for measuring radioactivity using a liquid scintillation counter.

SMILES	transport of ferrous and ferric iron across model liposomal membranes [1]	iron (III) efflux from POPC liposomes [1]	endosomal oxyburst green, cytosolic calcein green and mitochondrial RPA fluorescence (DMT1-deficient MEL cells)	decrease of oxyburst green fluorescence (DMT1-deficient MEL cells; hinokitiol 1 μM) [fold]	restoration of fet3Δftr1Δ yeast growth, small molecule dose-response (fet3Δftr1Δ yeast [2])	restoration of fet3Δftr1Δ yeast growth, small molecule dose-response (fet3Δftr1Δ yeast [2]; listed as Hinokitiol)	55Fe uptake into fet3Δftr1Δ yeast (fet3Δftr1Δ yeast [3])
CC(C)c1cccc(=O)c(O)c1 [hinokitiol]	autonomously transports both ferrous and ferric iron	dose- and temperature-dependently promoted iron (III) efflux	decreases endosomal oxyburst green fluorescence and quenches calcein green and RPA fluorescence	2.1	dose-dependently restores yeast growth	rescues growth of iron transporter-deficient yeast (Fet3Ftr1) at low concentrations	dose-dependent increase in ^55Fe uptake from 5 to 100 μM
CC(C)c1cccc(=O)cc1 [C2deOHino, C2-deoxy hinokitiol]	minimal transport	no efflux up to 100 μM	no effect		no biological activity; also recorded: does not		no uptake up to 100 μM
